Usually IC50 stands for the midpoint of a concentration-inhibition curve.

The values below come from patent US20140107109A1, “AMINO-DIHYDROTHIAZINE AND AMINO-DIOXIDO DIHYDROTHIAZINE COMPOUNDS AS BETA-SECRETASE ANTAGONISTS AND METHODS OF USE” (Amgen Inc., priority 2012, published 2014).

Molecules are shown by their SMILES. Read-outs that look alike come from different tables or passages of the source.

Assay [1] deals with Aβ40 in conditioned medium of cells stably expressing Amyloid Precursor Protein (APP). Nature of the assay: In vitro BACE cell-based assay (HEK cell assay), Aβ40 sandwich ELISA. The conditions noted are these: Homo sapiens, HEK293. The gist of the method:
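Aβ40 in conditioned medium was quantified by time-resolved fluorescence sandwich ELISA (pAb40 capture 3 h at 4 °C, biotin-6E10 detection 2 h at 4 °C) after 24 h compound exposure of APP-expressing cells. Doses spanned 10 points from 100 μM or 10 μM top, 0.1% DMSO; IC50 was derived from percent of control.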

Assay [2] addresses Beta Secretase enzyme (BACE1) (Homo sapiens, UniProt P56817). Nature of the assay: In vitro enzymatic BACE FRET assay. Format: biochemical. The conditions noted are these: read-out: BACE1 FRET assay IC50. In short, it runs like this: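 Readout: dequenched fluorescence (ex 488 nm/[…]) after neutralizing with Tris buffer. Reactions, begun by adding 50 nM quenched peptide substrate spanning the BACE cleavage site, were incubated one hour at pH 4.2 in 0.05 M acetate with 100 uM genapol and 10% final DMSO.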

For the next assay, the target named is T1, Cathepsin D (Cat D) (Homo sapiens, UniProt P07339).
T1 construct: Recombinant Cat D was expressed in CHO cells; made in house; host or cells: CHO cells
T1 sequence (P07339 65-412, species assumed): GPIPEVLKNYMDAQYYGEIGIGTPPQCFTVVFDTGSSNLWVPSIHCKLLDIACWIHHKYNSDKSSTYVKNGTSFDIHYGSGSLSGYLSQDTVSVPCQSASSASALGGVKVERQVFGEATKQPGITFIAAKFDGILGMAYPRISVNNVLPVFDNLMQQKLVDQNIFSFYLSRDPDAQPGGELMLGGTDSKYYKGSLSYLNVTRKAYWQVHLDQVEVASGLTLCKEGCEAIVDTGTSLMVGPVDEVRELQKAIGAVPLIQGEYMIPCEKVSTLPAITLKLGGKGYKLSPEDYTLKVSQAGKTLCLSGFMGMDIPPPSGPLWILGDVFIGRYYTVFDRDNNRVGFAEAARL
Nature of the assay: In vitro enzymatic Cathepsin D (Cat D) FRET assay. In kind it is biochemical. The note with it: read-out: CatD IC50. The gist of the method: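 FRET read-out: a fluorophore/quencher-labelled peptide substrate is cleaved by 9 nM Cat D (recombinant, CHO-expressed) following a one-hour preincubation with inhibitor dilutions in DMSO. Tris buffer added to neutralize pH ends the reaction before fluorescence measurement.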

Beta Secretase enzyme (BACE1), sequence (P56817 46-501): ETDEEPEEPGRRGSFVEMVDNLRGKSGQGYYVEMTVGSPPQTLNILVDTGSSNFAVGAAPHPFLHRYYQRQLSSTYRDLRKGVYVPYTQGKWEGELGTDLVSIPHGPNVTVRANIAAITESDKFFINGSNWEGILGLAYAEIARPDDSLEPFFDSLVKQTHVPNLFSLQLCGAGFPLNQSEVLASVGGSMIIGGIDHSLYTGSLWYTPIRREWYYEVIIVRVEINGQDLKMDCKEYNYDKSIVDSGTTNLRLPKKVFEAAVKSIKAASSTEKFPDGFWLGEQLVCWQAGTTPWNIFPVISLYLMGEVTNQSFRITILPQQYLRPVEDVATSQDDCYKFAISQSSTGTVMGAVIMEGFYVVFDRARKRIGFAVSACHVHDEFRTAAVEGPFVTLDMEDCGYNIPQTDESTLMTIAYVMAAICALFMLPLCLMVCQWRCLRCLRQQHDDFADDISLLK

As for `CC1(C)C(N)=N[C@](C)(c2cc(NC(=O)c3ncc(Cl)cc3F)ccc2F)CS1(=O)=O` [Example 24, N-(3-((3R)-5-amino-3,6,6-trimethyl-1,1-dioxido-3,6-dihydro-2H-1,4-thiazin-3-yl)-4-fluorophenyl)-5-chloro-3-fluoro-2-pyridinecarboxamide], the half-maximal inhibitory concentration (IC50) in assay [1] (Aβ40, 24 h incubation) is 0.0037 µM; in assay [2], 0.0006 µM; on Cathepsin D (Cat D), over 400 µM.
For the compound `Cc1ccc(Oc2ccc(F)c([C@]3(C)CS(=O)(=O)C(C)(C)C(N)=N3)c2)nc1` [Example 265, (5R)-5-(2-fluoro-5-((5-methyl-2-pyridinyl)oxy)phenyl)-2,2,5-trimethyl-5,6-dihydro-2H-1,4-thiazin-3-amine 1,1-dioxide], the half-inhibitory concentration (IC50) in assay [1] (average IC50, cell assay) is 0.804 µM; in assay [2] (average IC50, enzyme assay), 2.26 µM; on Cathepsin D (Cat D), 373 µM.
Regarding `COc1cnc(C(=O)Nc2ccc(F)c([C@]3(CF)CS(=O)(=O)C4(CCC4)C(N)=N3)c2)c(C)c1` [Example 373, N-(3-((7S)-9-amino-7-(fluoromethyl)-5,5-dioxido-5-thia-8-azaspiro[3.5]non-8-en-7-yl)-4-fluorophenyl)-5-methoxy-3-methyl-2-pyridinecarboxamide], the IC50 in assay [1] worked out at 0.0148 µM; in assay [2] it was 0.00245 µM; at Cathepsin D (Cat D), 197 µM.
`NC1=N[C@](CF)(c2cc(Nc3ncnc4cc(Cl)cnc34)ccc2F)CS(=O)(=O)C12CCC2` [Example 240, N-(3-((7S)-9-amino-7-(fluoromethyl)-5,5-dioxido-5-thia-8-azaspiro[3.5]non-8-en-7-yl)-4-fluorophenyl)-7-chloropyrido[3,2-d]pyrimidin-4-amine]: the 50% inhibitory concentration (IC50) amounted to 0.0272 µM in assay [1] (average IC50, cell assay); 0.0017 µM in assay [2] (average IC50, enzyme assay); 57.1 µM on Cathepsin D (Cat D).
On to `CC1(C)C(N)=N[C@](C)(c2cc(Nc3nccc4cc(C#N)cnc34)ccc2F)CS1(=O)=O` [Example 48, 8-((3-((3R)-5-amino-3,6,6-trimethyl-1,1-dioxido-3,6-dihydro-2H-1,4-thiazin-3-yl)-4-fluorophenyl)amino)-1,7-naphthyridine-3-carbonitrile], for which the IC50 in assay [1] (Aβ40, 24 h incubation) came out at 0.0019 µM; in assay [2], 0.00054 µM; at Cathepsin D (Cat D), 66.7 µM.
With `CCOc1cnc2c(Nc3ccc(F)c([C@]4(CF)CS(=O)(=O)C5(CCC5)C(N)=N4)c3)ncc(F)c2c1` [Example 438, N-(3-((7S)-9-amino-7-(fluoromethyl)-5,5-dioxido-5-thia-8-azaspiro[3.5]non-8-en-7-yl)-4-fluorophenyl)-3-ethoxy-5-fluoro-1,7-naphthyridin-8-amine], the concentration for half-maximal inhibition (IC50) in assay [1] (average IC50, cell assay) was 0.198 µM; in assay [2] (average IC50, enzyme assay), 0.00382 µM; at Cathepsin D (Cat D) it was over 1.65 µM.
As for `Cc1cc(C)c(C#N)c(Oc2ccc(F)c([C@]3(C)CS(=O)(=O)C(C)(C)C(N)=N3)c2)n1` [Example 295, 2-(3-((3R)-5-amino-3,6,6-trimethyl-1,1-dioxido-3,6-dihydro-2H-1,4-thiazin-3-yl)-4-fluorophenoxy)-4,6-dimethyl-3-pyridinecarbonitrile], the IC50 in assay [1] (average IC50, HEK cell assay) turned out to be 2.48 µM; in assay [2] (average IC50, enzyme assay) it was 2.64 µM; at Cathepsin D (Cat D), 1690 µM.
Turning to `COc1cnc2c(Nc3ccc(F)c([C@]4(C)CS(=O)(=O)C(C)(C)C(N)=N4)c3)ncnc2c1` [Example 51, N-(3-((3R)-5-amino-3,6,6-trimethyl-1,1-dioxido-3,6-dihydro-2H-1,4-thiazin-3-yl)-4-fluorophenyl)-7-methoxypyrido[3,2-d]pyrimidin-4-amine], the 50% inhibitory concentration (IC50) in assay [1] (Aβ40, 24 h incubation) was 0.003 µM; in assay [2], 0.0027 µM; at Cathepsin D (Cat D), 81 µM.
As for `Cc1cnc(C(=O)Nc2ccc(F)c([C@]3(C)CS(=O)(=O)C(C)(C)C(N)=N3)c2)c(C)n1` [Example 111, ®-N-(3-(5-amino-3,6,6-trimethyl-1,1-dioxido-3,6-dihydro-2H-1,4-thiazin-3-yl)-4-fluorophenyl)-3,5-dimethylpyrazine-2-carboxamide], the 50% inhibitory concentration (IC50) is 0.0244 µM in assay [1], 0.0182 µM in assay [2] and over 400 µM on Cathepsin D (Cat D).
On to `COc1cnc2c(Nc3ccc(F)c([C@]4(C)CS(=O)(=O)CC(N)=N4)c3)nccc2c1` [Example 56, N-(3-((3R)-5-amino-3-methyl-1,1-dioxido-3,6-dihydro-2H-1,4-thiazin-3-yl)-4-fluorophenyl)-3-methoxy-1,7-naphthyridin-8-amine], for which the IC50 in assay [1] (Aβ40, 24 h incubation) was found to be 0.0271 µM; in assay [2], 0.0627 µM; at Cathepsin D (Cat D) it was 69.8 µM.
`CC(C)COc1cnc2c(Nc3ccc(F)c([C@]4(CF)CS(=O)(=O)C(C)(C)C(N)=N4)c3)ncc(F)c2c1` [Example 436, N-(3-((3S)-5-amino-3-(fluoromethyl)-6,6-dimethyl-1,1-dioxido-3,6-dihydro-2H-1,4-thiazin-3-yl)-4-fluorophenyl)-5-fluoro-3-(2-methylpropoxy)-1,7-naphthyridin-8-amine]: the IC50 is 0.626 µM in assay [1] (average IC50, cell assay); 0.0043 µM in assay [2] (average IC50, enzyme assay); 61.6 µM at Cathepsin D (Cat D).
As to `NC1=N[C@](CF)(c2cc(N)ccc2F)CS(=O)(=O)C12CCC2` [Example 417, (7S)-7-(5-amino-2-fluorophenyl)-7-(fluoromethyl)-5-thia-8-azaspiro[3.5]non-8-en-9-amine 5,5-dioxide], the IC50 in assay [1] was found to be 3.65 µM; in assay [2], 2.1 µM; on Cathepsin D (Cat D), 69.7 µM.
On to `COc1cnc2c(Nc3ccc(F)c([C@]4(C)CS(=O)(=O)[C@@](C)(F)C(N)=N4)c3)ncnc2c1` [Example 177, (3R,6R)-5-Amino-6-fluoro-3-(2-fluoro-5-((7-methoxypyrido[3,2-d]pyrimidin-4-yl)amino)phenyl)-3,6-dimethyl-3,6-dihydro-2H-1,4-thiazine 1,1-dioxide], for which the IC50 is 0.0782 µM in assay [1] (average IC50, cell assay); 0.00268 µM in assay [2] (average IC50, enzyme assay); 175 µM at Cathepsin D (Cat D).
Regarding `C[C@]1(F)C(N)=N[C@](C)(c2cc(Nc3nccc4nc(C(F)(F)F)cnc34)ccc2F)CS1(=O)=O` [Example 423, N-(3-((3R,6R)-5-amino-6-fluoro-3,6-dimethyl-1,1-dioxido-3,6-dihydro-2H-1,4-thiazin-3-yl)-4-fluorophenyl)-2-(trifluoromethyl)pyrido[3,4-b]pyrazin-5-amine], the IC50 in assay [1] (average IC50, cell assay) was 0.735 µM; in assay [2] (average IC50, enzyme assay), 0.0013 µM; on Cathepsin D (Cat D) it was over 133 µM.
As to `COc1cnc2c(Nc3ccc(F)c([C@]4(C)CS(=O)(=O)C5(CCCC5)C(N)=N4)c3)nccc2c1` [Example 84, (R)-10-Amino-8-(2-fluoro-5-((3-methoxy-1,7-naphthyridin-8-yl)amino)phenyl)-8-methyl-6-thia-9-azaspiro[4.5]dec-9-ene 6,6-dioxide], the half-inhibitory concentration (IC50) in assay [1] (Aβ40, 24 h incubation) turned out to be 0.0575 µM; in assay [2], 0.0234 µM; at Cathepsin D (Cat D), 283 µM.
As for `Cc1c(CNc2ccc(F)c([C@]3(C)CS(=O)(=O)C(C)(C)C(N)=N3)c2)nc2ccc(Cl)cn12` [Example 152, (R)-5-amino-3-(5-(((6-chloro-3-methylimidazo[1,2-a]pyridin-2-yl)methyl)amino)-2-fluorophenyl)-3,6,6-trimethyl-3,6-dihydro-2H-1,4-thiazine 1,1-dioxide], the IC50 in assay [1] (average IC50, cell assay) amounted to 0.302 µM; in assay [2] (average IC50, enzyme assay) it was 2.94 µM; on Cathepsin D (Cat D) it was 1460 µM.
As for `Cc1nc(Oc2ccc(F)c([C@]3(C)CS(=O)(=O)C(C)(C)C(N)=N3)c2)ccc1C#N` [Example 272, 6-(3-((3R)-5-amino-3,6,6-trimethyl-1,1-dioxido-3,6-dihydro-2H-1,4-thiazin-3-yl)-4-fluorophenoxy)-2-methyl-3-pyridinecarbonitrile], the half-inhibitory concentration (IC50) in assay [1] (average IC50, cell assay) is 2.02 µM; in assay [2] (average IC50, enzyme assay), 2.69 µM; at Cathepsin D (Cat D), 217 µM.
In the case of `C[C@]1(F)C(N)=N[C@](C)(c2cc(Nc3nccc4cc(Cl)cnc34)ccc2F)CS1(=O)=O` [Example 174, (3R,6R)-5-Amino-3-(5-((3-chloro-1,7-naphthyridin-8-yl)amino)-2-fluorophenyl)-6-fluoro-3,6-dimethyl-3,6-dihydro-2H-1,4-thiazine 1,1-dioxide], the 50% inhibitory concentration (IC50) in assay [1] (average IC50, cell assay) worked out at 0.119 µM; in assay [2] (average IC50, enzyme assay) it was 0.00033 µM; at Cathepsin D (Cat D), 101 µM.
Turning to `Cc1c(CNc2cc([C@]3(C)CS(=O)(=O)C(C)(C)C(N)=N3)c(F)cn2)nc2ccc(Cl)cn12` [Example 145, (R)-5-amino-3-(2-(((6-chloro-3-methylimidazo[1,2-a]pyridin-2-yl)methyl)amino)-5-fluoropyridin-4-yl)-3,6,6-trimethyl-3,6-dihydro-2H-1,4-thiazine-1,1-dioxide], the concentration for half-maximal inhibition (IC50) in assay [1] (average IC50, HEK cell assay) is 0.412 µM; in assay [2] (average IC50, enzyme assay) it was 0.44 µM; on Cathepsin D (Cat D), 102 µM.
In the case of `CC1(C)C(N)=N[C@](CF)(c2cc(Nc3ncnc4cc(Cl)cnc34)ccc2F)CS1(=O)=O` [Example 235, N-(3-((3S)-5-amino-3-(fluoromethyl)-6,6-dimethyl-1,1-dioxido-3,6-dihydro-2H-1,4-thiazin-3-yl)-4-fluorophenyl)-7-chloropyrido[3,2-d]pyrimidin-4-amine], the concentration for half-maximal inhibition (IC50) in assay [1] (average IC50, cell assay) is 0.0308 µM; in assay [2] (average IC50, enzyme assay), 0.00326 µM; on Cathepsin D (Cat D), 68.2 µM.
